We go through 2 compounds from publication PMC5947527 (Chemical Science, 2015).

The test system of assay [1] is isolated human neutrophils. As to the kind of experiment: Co-culture of bacteria and isolated human neutrophils, confocal specificity. In kind it is cell-based. The source says:
Neutrophil Isolation: Neutrophils for in vitro experiments were isolated from peripheral venous blood of healthy human volunteers (Ethical approval was obtained from the Lothian Research Ethics Committee). Blood was anticoagulated with sodium citrate (0.38% final concentration) and polymorphonuclear leukocytes were isolated via dextran sedimentation followed by centrifugation through discontinuous plasma-Percoll gradients, as previously described. S4 […]
(§1) Confocal Analysis and Fluorescence Quantification: 8-Well Lab-Tek II Confocal Chambers (VWR, PA, USA) were coated in fibronectin (for neutrophil experiments) or poly-d-lysine (for bacteria) at 37 °C for 20 minutes, then washed in PBS prior to bacterial innoculation. For co-culture assays, neutrophils were seeded on fibronectin coated wells at 1 x 10^5 neutrophils per well for 20 minutes and non-adherent neutrophils aspirated. Bacteria were added to each chamber to a final concentration of 0.5 OD595 nm with the desired final concentration of Smartprobe. A laser-scanning confocal imaging system (LSM510; Carl Zeiss, Jena, Germany), incorporating an upright Axioskop FS2 microscope (63× objective) was used for image acquisition and processing. Exposure to 488 nm light was limited to 5% of the maximum laser power in order to minimize toxicity. ‘Green’ fluorescence (for FAM and NBD) was excited with a dedicated 488 nm line and emitted light detected with meta detector (500-530 nM).
(§2) Syto nuclear and dyes were excited with a dedicated 543 nm line, and emitted light detected with meta detector (570-610 nM). Fields of view were chosen based on the counterstain and at least three fields of view were recorded for each condition. For affinity assays, following initial imaging, the fluid was aspirated and two gentle washes with PBS were performed. The chamber was re-imaged on confocal.
Analysis was with ImageJ (version 1.46r, National Institutes of Health, USA); the Syto channel was automatically thresholded (MaxEntropy, with a set threshold 0-47) and an ROI generated from this. The

Assay [2] relates to methicillin-sensitive Staphylococcus aureus. Nature of the assay: Confocal labelling of MSSA with quantified fluorescence. Format: cell-based. On the procedure:
Fig. 6 Confocal Images of compounds UBI-3 to 9 with quantified fluorescence. Panels show methicillin-sensitive Staphylococcus aureus incubated with UBI-3 to 9 (all 10 μM) with quantification of bacterial fluorescence normalized to UBI-3 (bars represent mean (±SEM), n ≥ 3, ns = not significant, *** = p < 0.001, * = p < 0.05, scale bar = 10 μm).
Fig. 8 Confocal images and quantification of cyclic variants when compared to UBI-3. Panels show methicillin-sensitive Staphylococcus aureus incubated with cyclic UBI compounds (all 10 μM) with quantification of bacterial fluorescence normalized to UBI-3 (bars represent mean (±SEM), n ≥ 3, ns = not significant, ** = p < 0.01, scale bar = 10 μm).
Bacterial Culture and Labelling: Bacteria used were K. pneumoniae (ATCC BAA1706) ATCC, E. coli (ATCC 25922) ATCC, A. baumannii (J3433) Clinical Isolate, P. aeruginosa (J3284) Clinical Isolate, Methicillin Resistant S. aureus (MRSA) (ATCC25923) ATCC and Methicillin Sensitive S. aureus (MSSA) (ATCC 252) ATCC. All bacteria were grown on Lysogeny broth (LB) agar and from a single bacterial colony placed into 10ml of LB and incubated at 37°C for 16 hours in an orbital shaker.
Cultures were centrifuged at 4000rpm for 5 minutes and the pellet resuspended in 1ml phosphate buffered saline (PBS, Life Technologies). Following three further washes in PBS the cultures were reconstituted to 1 OD595 nm. Bacteria were counterstained with 5µM Syto 82 orange fluorescent nucleic acid stain (Invitrogen, CA, USA) in a shaking heat block at 37 °C for 20 minutes. For FCFM bacteria were stained with 1µM Calcein AM (Sigma, MO, USA) for 30 minutes at 37 °C. Counterstained bacteria were washed in PBS to remove excess dye. […]
as §1, §2
(§3) Analysis was with ImageJ (version 1.46r, National Institutes of Health, USA); the Syto channel was automatically thresholded (MaxEntropy, with a set threshold 0-47) and an ROI generated from this. The […]
(§4) mean fluorescence intensity on the probe channel within this ROI was quantified. Data presented represents the mean of three experiments, from each of which three separate fields of view were assessed. All experiments were performed at least three times unless otherwise stated and results expressed as mean ± SEM. Data was analysed by unpaired t-test and significance was determined as p<0.05 (GraphPad Prism version 5.01 for Windows, GraphPad Software, San Diego California USA).
Ex vivo Human Lung and FCFM Procedure: Human lung samples were obtained from patients undergoing surgical resection for lung carcinoma. All images were obtained on sections of normal lung […]

For assay [3], the system named is Methicillin sensitive S. aureus, K. pneumoniae and P. aeruginosa. As to the kind of experiment: Bacterial affinity: fluorescence retention following a PBS wash (confocal). The following applies: 10 µM, two gentle PBS washes, three bacterial species, n=3. In kind it is cell-based. The protocol: Three compounds (UBI-3, UBI-5 and UBI-10) were assessed for further evaluation. […] In vitro affinity of bacterial binding was assessed by incorporating a wash step in the live confocal imaging protocol with a panel of bacteria with the ‘wash-off’ representing a surrogate indicator of Smartprobe-bacterial labelling affinity. […] UBI-10, therefore, was assessed further in a clinically relevant biological system.
Figure S4. Quantified fluorescence of confocal microscopy images of the compounds UBI-3, UBI-5 and UBI-10 on three bacteria and fluorescence retention following a PBS wash. Quantification of fluorescence intensity of (A) Methicillin sensitive S. aureus, (B) K. pneumoniae and (C) and P. […]
intensity following a PBS wash. […]
as §1, §2, §3, §4
Ex vivo Human Lung and FCFM Procedure: Human lung samples were obtained from patients undergoing surgical resection for lung carcinoma. All images were obtained on sections of normal lung away from the cancerous growth. Informed consent was obtained and the study was approved by the Regional Ethics Committee. Samples were taken fresh from the operating theatre, dissected into 4mm sections and placed in wells of 96 well plate. Bacteria were pre-labelled with Smartprobe or Calcein AM and co-cultured in the well with a maximum volume of 100µl. […]

In assay [4] the test system is bacteria in ex vivo human lung tissue. As to the kind of experiment: Fibered confocal fluorescence microscopy (FCFM) of labelled bacteria on ex vivo human lung tissue. The following applies: 10 μM, bacteria pre-labelled, 488 nm FCFM, n = 3. On the procedure: Since NBD is also excited at 488 nm, the utility and detection of the Smartprobes with FCFM was next evaluated. […] These were then delivered onto ex vivo human lung tissue fragments.
Fig. 10 UBI-10 can be used to image bacteria in ex vivo human lung tissue by fibered confocal fluorescence microscopy (FCFM). FCFM imaging of bacteria in suspension (upper panels) or when co-incubated with ex vivo human lung tissue (lower panels). […] All compounds at 10 μM, n = 3. […]
as §4
Ex vivo Human Lung and FCFM Procedure: Human lung samples were obtained from patients undergoing surgical resection for lung carcinoma. All images were obtained on sections of normal lung away from the cancerous growth. Informed consent was obtained and the study was approved by the Regional Ethics Committee. Samples were taken fresh from the operating theatre, dissected into 4mm sections and placed in wells of 96 well plate. […]

[5] abbreviates: 0.5 μM to 50 μM, methicillin sensitive S. aureus.

Molecules are shown by their SMILES. “Also recorded” adds a separate entry of the source. Non-standard residues stand in square brackets, D forms with d. Residues, ends and D or L forms follow the SMILES beside them. *: point of attachment. NBD = O=[N+]([O-])c1ccc(*)c2nonc12; Nle = CCCC[C@H](N)C(=O)O; Ahx = NCCCCCC(=O)O

Regarding `CCCC[C@H](NC(=O)[C@H](CCCNC(=N)N)NC(=O)[C@H](CCCNC(=N)N)NC(=O)[C@H](CCCCN)NC(=O)[C@H](C)NC(=O)[C@H](CCCNC(=N)N)NC(=O)CNC(=O)[C@@H](NC(=O)CCCCCNc1ccc([N+](=O)[O-])c2nonc12)[C@@H](C)O)C(=O)N[C@@H](CCC(N)=O)C(=O)N[C@@H](Cc1ccc(O)cc1)C(=O)N[C@@H](CC(N)=O)C(=O)N[C@@H](CCCNC(=N)N)C(=O)N[C@@H](CCCNC(=N)N)C(N)=O` [UBI-3] ({NBD-Ahx}-TGRAKRR[Nle]QYNRR-NH2), in assay [1] (bacteria with isolated human neutrophils, confocal), the “labelling of neutrophils vs bacteria” value is given as “labels bacteria but not isolated human neutrophils”. The “concentration dependence of bacterial labelling” value in assay [2] (setting [5]) is “concentration dependent manner; also recorded: concentration dependent increase in bacterial fluorescence”. Moreover, the “fluorescence following labelling and a PBS wash” value in assay [3] is on record as “significantly lower fluorescence”. Also, the “detection of labelled bacteria by FCFM on ex vivo human lung tissue” value in assay [4] is recorded as “immediately lost their fluorescent signal; also recorded: can image bacteria in suspension but not in the presence of ex vivo human lung”.

For the compound `CCCC[C@@H]1NC(=O)[C@H](CCCNC(=N)N)NC(=O)[C@H](CCCNC(=N)N)NC(=O)[C@H](CCCCN)NC(=O)[C@H](C)NC(=O)[C@H](CCCNC(=N)N)NC(=O)CNC(=O)[C@H]([C@@H](C)O)NC(=O)[C@@H](NC(=O)CCCCCNc2ccc([N+](=O)[O-])c3nonc23)CCCCNC(=O)CNC(=O)[C@H](CCCNC(=N)N)NC(=O)[C@H](CCCNC(=N)N)NC(=O)[C@H](CC(N)=O)NC(=O)[C@H](Cc2ccc(O)cc2)NC(=O)[C@H](CCC(N)=O)NC1=O` [UBI-10], the “labelling of neutrophils at 10 μM” value in assay [1] (co-culture of isolated human neutrophils and methicillin sensitive S. aureus, 10 μM) is recorded as “retained bacterial specificity over neutrophils; also recorded: no labelling of neutrophils”. Further, the “labelling of neutrophils at 50 μM” value in assay [1] (co-culture of isolated human neutrophils and methicillin sensitive S. aureus, 50 μM) is “some neutrophil labelling was observed; also recorded: occasional neutrophil labelling was observed”. In addition, in assay [2] (setting [5]), the “concentration dependence of bacterial labelling” value was “concentration dependent manner; also recorded: concentration dependent increase in bacterial fluorescence” and the “relative fluorescence of labelled bacteria compared with the other compounds” value is “higher than UBI-3 or UBI-5 labelled bacteria; also recorded: higher fluorescence (per molar equivalents) at all concentrations tested”. The “bacterial labelling (fluorescence compared with UBI-3)” value in assay [2] (MSSA, 10 μM, fluorescence normalized to UBI-3, mean ± SEM, n ≥ 3) was “significantly higher signal; also recorded: improved bacterial labelling”. Moreover, in assay [3], the “fluorescence following labelling and a PBS wash” value is given as “retains a significant fluorescence intensity”. Also, the “detection of labelled bacteria by FCFM on ex vivo human lung tissue” value in assay [4] is on record as “readily identified above elastin autofluorescence; also recorded: can image bacteria by FCFM in the presence of ex vivo human lung”.
